Data taken from US4990499A, “Anti-herpes simplex virus activity of 5-alkoxymethyl-2'-deoxycytidimes and their 5-monophosphates” (priority 1989, dated 1991).

How the values were obtained:
[1] = test system: Herpes simplex virus type 1 (HSV-1); experiment: Antiviral activity against HSV-1, viral plaque reduction (ED50); type: cell-based; conditions: FIG. 13; HSV-1 KOS and 76, Vero, 20 PFU
[2] = test system: Herpes simplex virus type 1 (HSV-1); experiment: as above; type: cell-based; conditions: for reversal of antiviral activity of MMdCyd, order of potency: FIGS. 4 to 6
Protocol: (§1) Infected cells were treated with different concentrations of MMdCyd and the concentration required to reduce viral plaque formation by 50%, i.e. ED50, was determined.
(§2) ^a ED50 : Concentration required to reduce viral plaque formatio
Vero cells were infected with the KOS strain of HSV-1. The compound of compounds indicated in Table 2, below, and are shown graphically in FIGS. 1, (H4 dUrd) and 2 (H4 Urd).
^a Antiviral assays were carried out using Vero cells. All compounds
were added immediately after virus infection.
(§3) The antiviral activity of MMdCyd in the presence of H4 dUrd was determined against several strains of HSV-1 and HSV-2.
Vero cells were infected with HSV-1, strain 76 and treated with MMdCyd at different times post virus infection.
The antiviral activity, ^a cyctotoxicity* and antiviral indices of MMdCyd in the presence of H4 dUrd, dGuo and H4 dUrd+dGuo were determined.
^a Antiviral assays were carried out using Vero cells. Compounds were
added immediately after virus infection. Virus HSV1, strains KOS and 76;
KOS, virus input = 50 PFU

[3] = test system: Herpes simplex virus type 2 (HSV-2); experiment: Antiviral activity against HSV-2, viral plaque reduction (ED50); type: cell-based; conditions: HSV-2
Protocol: as §1, §2, §3
^a Antiviral assays were carried out using Vero cells. Virus input 50
^b ED50 : Concentration required to reduce viral plaque formatio

[4] = test system: Deoxynucleoside Triphosphate (dNTP) Pools in Vero Cells Infected with Herpes Simplex Virus Type 1; experiment: Deoxynucleoside triphosphate (dNTP) pools in HSV-1 infected Vero cells; type: cell-based; conditions: Table 16, HSV-1 KOS infected Vero, treatment 7 hours, ± S.E.
Protocol: Example 9 was repeated, except that the Vero cells subjected to the treatment had all been infected with HSV-1 KOS strain prior to the treatment.
^a Cells were infected with 10 PFU/cell of HSV1 KOS strain for one
hour. Treatments were given for seven hours.
^a Cells were infected with 10 PFU/cell of HSV1, KOS strain after
^b H4 dUrd in MEM was added immediately after adsorption and
^c H4 dUrd in MEM was added immediately after adsorption and
(§4) Vero cells and HSV-infected Vero cells were treated with dGUO and dGUO and H4 dUrd. The cells were then assayed for the presence of deoxynucleoside triphosphates. Untreated Vero cells were also assayed for the presence of deoxynucleoside triphophate to provide a control.
^c Cells were infected with 10 PFU/cell of HSV1 strain KOS for one

[5] = test system: Deoxynucleoside Triphosphate (dNTP) Pools in Uninfected Vero Cells; experiment: Deoxynucleoside triphosphate (dNTP) pools in uninfected (mock-infected) Vero cells; type: cell-based
Protocol: Vero cells were treated with MMdCyd, H4 dUrd and MMdCyd+H4 dUrd. The cells were then assayed for the presence of deoxynucleoside triphosphates. Untreated Vero cells were also assayed for the presence of deoxynucleoside triphosphates, to provide a control.
^a Cells were mock infected for one hour. Different treatments were
^b Values are means of at least two assays of triplicate cell
as §4
Vero cells were treated with N-methyl-MMdCyd. The cells were then assayed for dNTP pools.

[6] = molecular target: T1, human DNA polymerase alpha (Homo sapiens, UniProt P09884); experiment: In vitro DNA synthesis by human DNA polymerase alpha ([3H]dAMP incorporation); type: biochemical; conditions: Human α-DNA polymerase
T1 sequence (P09884 1-1462): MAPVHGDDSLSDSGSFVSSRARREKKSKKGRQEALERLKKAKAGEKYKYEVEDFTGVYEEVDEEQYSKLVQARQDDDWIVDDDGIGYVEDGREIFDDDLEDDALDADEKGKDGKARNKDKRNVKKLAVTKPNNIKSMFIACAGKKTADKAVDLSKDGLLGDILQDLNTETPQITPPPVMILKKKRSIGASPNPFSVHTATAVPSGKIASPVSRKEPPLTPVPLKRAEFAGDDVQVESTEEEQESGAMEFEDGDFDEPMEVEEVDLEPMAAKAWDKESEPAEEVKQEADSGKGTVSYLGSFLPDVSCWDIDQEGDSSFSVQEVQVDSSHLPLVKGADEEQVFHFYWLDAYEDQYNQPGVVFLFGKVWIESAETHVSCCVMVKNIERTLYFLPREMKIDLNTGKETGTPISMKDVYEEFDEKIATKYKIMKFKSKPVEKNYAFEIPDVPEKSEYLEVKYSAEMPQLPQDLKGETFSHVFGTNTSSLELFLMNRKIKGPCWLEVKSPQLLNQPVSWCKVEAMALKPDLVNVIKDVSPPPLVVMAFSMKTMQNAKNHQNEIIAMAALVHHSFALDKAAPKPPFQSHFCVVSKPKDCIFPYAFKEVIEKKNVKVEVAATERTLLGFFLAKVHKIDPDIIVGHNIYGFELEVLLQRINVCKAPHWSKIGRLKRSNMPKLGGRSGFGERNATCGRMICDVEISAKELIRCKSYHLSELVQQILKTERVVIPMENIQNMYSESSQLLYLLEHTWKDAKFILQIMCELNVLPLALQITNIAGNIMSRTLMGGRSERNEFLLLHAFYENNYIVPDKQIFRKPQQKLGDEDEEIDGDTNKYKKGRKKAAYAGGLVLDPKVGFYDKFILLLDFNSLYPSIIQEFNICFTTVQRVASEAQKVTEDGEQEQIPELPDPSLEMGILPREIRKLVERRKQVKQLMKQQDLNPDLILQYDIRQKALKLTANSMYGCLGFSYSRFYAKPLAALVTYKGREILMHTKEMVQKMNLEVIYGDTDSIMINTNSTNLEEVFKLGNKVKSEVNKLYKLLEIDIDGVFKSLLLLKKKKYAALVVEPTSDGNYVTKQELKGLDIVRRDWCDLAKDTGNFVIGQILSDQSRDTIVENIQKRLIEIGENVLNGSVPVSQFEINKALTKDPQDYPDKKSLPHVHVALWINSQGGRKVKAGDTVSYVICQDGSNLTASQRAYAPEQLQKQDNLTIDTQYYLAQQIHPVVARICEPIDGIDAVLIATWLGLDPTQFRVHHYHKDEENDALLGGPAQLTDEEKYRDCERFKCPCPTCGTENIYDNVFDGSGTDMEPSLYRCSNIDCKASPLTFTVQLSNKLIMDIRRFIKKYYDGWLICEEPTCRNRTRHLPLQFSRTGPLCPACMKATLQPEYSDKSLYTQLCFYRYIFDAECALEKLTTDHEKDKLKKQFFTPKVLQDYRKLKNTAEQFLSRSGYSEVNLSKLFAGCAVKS
Protocol: A comparison of in vitro DNA synthesis by viral and cellular DNA polymerases with MMdCTP as an alternative substrate. The results are shown graphically in FIG. 14 and compare HSV-1 DNA polymerase and human DNA polymerase alpha activity.
(§5) The number of pmoles of [^3 H] dAMP incorporated into control samples (`O`MMdCTP) was subtracted from pmoles of test samples. Other nucleotides,dATP, dTTP and dGTP were in excess (10 μm). Each assay was performed in triplicate.
(§6) ^+ unlabeled dNTP concentration (10 μM).
(§7) ^++ 0.2 μM of [^3 H]dATP was used in each assay.

[7] = molecular target: HSV-1 DNA Polymerase (Human herpesvirus 1, UniProt P04293); experiment: In vitro DNA synthesis by HSV-1 DNA polymerase ([3H]dAMP incorporation); type: biochemical, Herpes simplex virus type 1; conditions: HSV-1 DNA polymerase
Protocol: The relative in vitro DNA synthesis by HSV-1 DNA Polymerase using dCTP or MMdCTP as the rate limiting substrate was determined. The synthesis was followed by assaying an incorporation of tritium labelled dAMP.
+ unlabelled dNTP concentration 10 μM
++ Radio labelled [^3 H]dAMP conc 0.2 μM
*One hundred percent activity represents 27355 cpm of [^3 H]dAMP
as §5, §6, §7

[8] = molecular target: E. coli DNA Polymerase 1 (Escherichia coli, UniProt P00582); experiment: In vitro DNA synthesis by E. coli DNA polymerase 1 ([3H]dAMP incorporation); type: biochemical
Protocol: ^a Enzymatic assays were carried out with 1 unit of Sigma E. coli DNA
Polymerase 1. dTTP, dGTP and [^3 H] dATP were non limiting (5 μM).
^b Values obtained are net after subtracting "0" samples which did no
^c Amount of NMeMMdCTP used with each concentration of dCTP was 0.625

[9] = Table 16, uninfected Vero, treatment 7 hours, ± S.E.

E. coli DNA Polymerase 1, sequence (P00582 whole entry): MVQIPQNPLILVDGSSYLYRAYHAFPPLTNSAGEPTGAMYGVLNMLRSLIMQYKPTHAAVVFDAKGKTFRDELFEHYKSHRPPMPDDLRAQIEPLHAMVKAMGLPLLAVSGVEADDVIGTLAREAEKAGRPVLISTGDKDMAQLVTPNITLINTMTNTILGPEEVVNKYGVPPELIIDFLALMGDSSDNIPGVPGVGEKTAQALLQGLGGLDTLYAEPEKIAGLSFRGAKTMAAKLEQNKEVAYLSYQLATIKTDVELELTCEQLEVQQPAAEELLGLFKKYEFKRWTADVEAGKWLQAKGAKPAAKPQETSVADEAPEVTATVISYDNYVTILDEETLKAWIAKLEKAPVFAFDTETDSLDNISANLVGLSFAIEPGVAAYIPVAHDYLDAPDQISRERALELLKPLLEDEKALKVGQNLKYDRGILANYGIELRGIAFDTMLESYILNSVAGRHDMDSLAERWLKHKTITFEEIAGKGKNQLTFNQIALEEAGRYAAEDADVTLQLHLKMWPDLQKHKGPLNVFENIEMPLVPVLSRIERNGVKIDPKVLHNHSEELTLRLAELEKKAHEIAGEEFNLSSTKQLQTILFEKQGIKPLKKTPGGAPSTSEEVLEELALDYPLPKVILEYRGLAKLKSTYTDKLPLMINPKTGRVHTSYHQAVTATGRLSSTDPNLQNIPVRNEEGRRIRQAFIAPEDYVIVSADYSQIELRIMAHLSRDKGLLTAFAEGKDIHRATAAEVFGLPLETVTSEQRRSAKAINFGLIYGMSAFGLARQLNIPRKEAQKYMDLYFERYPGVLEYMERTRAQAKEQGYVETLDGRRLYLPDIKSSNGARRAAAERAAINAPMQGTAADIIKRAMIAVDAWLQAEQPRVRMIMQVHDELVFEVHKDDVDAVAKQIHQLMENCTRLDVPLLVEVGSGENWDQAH
HSV-1 DNA Polymerase, sequence (P04293 whole entry): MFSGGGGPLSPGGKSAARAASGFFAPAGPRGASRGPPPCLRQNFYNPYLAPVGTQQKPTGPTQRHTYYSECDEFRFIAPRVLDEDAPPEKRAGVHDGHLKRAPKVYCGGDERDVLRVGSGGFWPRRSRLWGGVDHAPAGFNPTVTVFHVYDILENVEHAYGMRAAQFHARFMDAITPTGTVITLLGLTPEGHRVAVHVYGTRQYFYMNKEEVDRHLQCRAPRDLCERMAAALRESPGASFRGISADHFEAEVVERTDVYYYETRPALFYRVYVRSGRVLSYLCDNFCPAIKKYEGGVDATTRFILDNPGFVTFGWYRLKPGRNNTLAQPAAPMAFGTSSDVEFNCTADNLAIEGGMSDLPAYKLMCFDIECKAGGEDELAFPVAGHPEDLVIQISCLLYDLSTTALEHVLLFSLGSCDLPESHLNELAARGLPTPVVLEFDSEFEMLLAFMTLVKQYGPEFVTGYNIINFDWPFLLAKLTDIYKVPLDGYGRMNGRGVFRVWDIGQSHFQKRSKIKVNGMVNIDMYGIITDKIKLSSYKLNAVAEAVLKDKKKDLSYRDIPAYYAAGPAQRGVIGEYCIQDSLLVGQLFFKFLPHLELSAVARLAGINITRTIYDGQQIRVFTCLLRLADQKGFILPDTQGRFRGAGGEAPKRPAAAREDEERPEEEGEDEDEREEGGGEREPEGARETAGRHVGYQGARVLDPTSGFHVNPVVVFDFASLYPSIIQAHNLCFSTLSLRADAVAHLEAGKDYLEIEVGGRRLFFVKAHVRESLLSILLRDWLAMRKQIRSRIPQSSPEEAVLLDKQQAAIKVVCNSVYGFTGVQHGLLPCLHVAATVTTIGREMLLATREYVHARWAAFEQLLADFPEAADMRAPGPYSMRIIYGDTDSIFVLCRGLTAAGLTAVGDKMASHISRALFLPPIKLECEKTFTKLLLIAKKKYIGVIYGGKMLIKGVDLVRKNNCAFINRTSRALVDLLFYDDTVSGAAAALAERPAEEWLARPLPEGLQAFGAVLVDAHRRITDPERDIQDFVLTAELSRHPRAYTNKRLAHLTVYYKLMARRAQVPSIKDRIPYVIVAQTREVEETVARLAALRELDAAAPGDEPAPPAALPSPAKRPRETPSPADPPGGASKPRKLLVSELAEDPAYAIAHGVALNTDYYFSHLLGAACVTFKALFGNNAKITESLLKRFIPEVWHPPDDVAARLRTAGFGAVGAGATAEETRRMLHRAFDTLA

SMILES: Nc1ncnc2c1ncn2[C@H]1C[C@H](O)[C@@H](CO)O1 [Deoxyadenosine, reference compound]
- effect on antiviral activity of MMdCyd [1]: no effect on antiherpes activity of MMdCyd

SMILES: COCc1cn([C@H]2C[C@H](OC(C)=O)[C@@H](COC(C)=O)O2)c(=O)nc1N [Di-AC-MMdCyd, 5-methoxymethyl-3',5'-diacetyl-2'-deoxycytidine]
- EC50 [2]: 535 µM
- potency against HSV-1 relative to parent compound (times lower) ([2]; vs MMdCyd, cell culture): approximately 20 times

SMILES: O=C1NC(O)CCN1[C@@H]1O[C@H](CO)[C@@H](O)[C@H]1O (stereo partly drawn) [H4 Urd, tetrahydrouridine, reference compound]
- potentiation of the activity of MMdCyd (fold) ([2]; H4 Urd with MMdCyd): approximately 2 fold

SMILES: COCc1cn([C@H]2C[C@H](O)[C@@H](COP(=O)(O)O)O2)c(=O)nc1N [MMdCMP, 5-methoxymethyl-2'-deoxycytidine monophosphate]
- EC50 [2]: 10 to 14 µM
- antiviral activity ([2]; HSV-1): potent inhibitor of HSV-1

SMILES: Cc1cn([C@H]2C[C@H](O)[C@@H](CO)O2)c(=O)nc1N [MedCyd, 5-methyl-2'-deoxycytidine, reference compound]
- EC50 [2]: > 530 µM
- antiviral activity ([2]; up to 128 μg/ml, HSV-1): devoid of activity

SMILES: CNc1nc(=O)n([C@H]2C[C@H](O)[C@@H](COP(=O)(O)O)O2)cc1COC [N-Me-MMdCMP, 5-Methoxymethyl-N^4-methyl-2'-deoxycytidine-5'-monophosphate]
- EC50 [2]: > 1800 µM
- antiviral activity ([2]; HSV-1): completely inert
- antiviral activity [3]: completely inert

SMILES: CNc1nc(=O)n([C@H]2C[C@H](O)[C@@H](CO)O2)cc1COC [N-Me-MMdCyd, 5-methoxymethyl-N4-methyl-2'-deoxycytidine]
- EC50 [2]: > 1800 µM
- antiherpes activity ([2]; summary statement): completely devoid of antiherpes activity
- antiviral activity ([2]; up to 1796 μM): devoid of antiviral activity
- dATP pool [4]: 7.4 ± 0.4 .rho. moles/10^6 cells
- dCTP pool [4]: 18 ± 1.08 .rho. moles/10^6 cells
- dGTP pool [4]: 58.9 ± 2.22 .rho. moles/10^6 cells
- dTTP pool [4]: 419 ± 10.6 .rho. moles/10^6 cells
- dATP pool [5, 9]: 32.2 ± 2.5 .rho. moles/10^6 cells
- dCTP pool [5, 9]: 17.3 ± 1.32 .rho. moles/10^6 cells
- dGTP pool [5, 9]: 36.3 ± 1.67 .rho. moles/10^6 cells
- dTTP pool [5, 9]: 38.6 ± 1.22 .rho. moles/10^6 cells
- effect on dNTP pools ([5]; Vero cells): did not cause perturbation of dNTP pools to any significant degree

SMILES: CNc1nc(=O)n([C@H]2C[C@H](O)[C@@H](COP(=O)(O)OP(=O)(O)OP(=O)(O)O)O2)cc1COC [N-MeMMdCTP]
- incorporation into DNA / substrate [6]: not incorporated into DNA
- incorporation into DNA / substrate [7]: not incorporated into DNA
- interference with incorporation of dCTP into DNA ([8]; E. coli DNA polymerase): did not interfere with incorporation of dCTP into DNA
- substrate for DNA polymerase ([8]; E. coli DNA polymerase): did not serve as a substrate
- cpm [^3 H]dAMP incorporated ([8]; nucleotide 0.039 μM (mixture: dCTP at this concentration + N-MeMMdCTP 0.625 μM)): -18 cpm
- cpm [^3 H]dAMP incorporated ([8]; nucleotide 0.078 μM (mixture: dCTP at this concentration + N-MeMMdCTP 0.625 μM)): -7 cpm
- cpm [^3 H]dAMP incorporated ([8]; nucleotide 0.156 μM (mixture: dCTP at this concentration + N-MeMMdCTP 0.625 μM)): 3 cpm
- cpm [^3 H]dAMP incorporated ([8]; nucleotide 0.312 μM (mixture: dCTP at this concentration + N-MeMMdCTP 0.625 μM)): -9 cpm
- cpm [^3 H]dAMP incorporated ([8]; nucleotide 0.625 μM (mixture: dCTP at this concentration + N-MeMMdCTP 0.625 μM)): 3 cpm
- cpm [^3 H]dAMP incorporated ([8]; nucleotide 1.25 μM (mixture: dCTP at this concentration + N-MeMMdCTP 0.625 μM)): -20 cpm
- cpm [^3 H]dAMP incorporated ([8]; nucleotide 2.50 μM (mixture: dCTP at this concentration + N-MeMMdCTP 0.625 μM)): -17 cpm
- cpm [^3 H]dAMP incorporated ([8]; nucleotide 5.0 μM (mixture: dCTP at this concentration + N-MeMMdCTP 0.625 μM)): -16 cpm

SMILES: Nc1ccn([C@H]2C[C@H](O)[C@@H](CO)O2)c(=O)n1 [deoxycytidine, 2'-deoxycytidine, reference compound]
- reversal of antiviral activity of MMdCyd, order of potency [2]: deoxythymidine>deoxyuridine>deoxycytidine
- effect on dose-response curve of MMdCyd ([2]; equimolar concentrations, FIG. 5): parallel upward shift

SMILES: Cc1cn([C@H]2C[C@H](O)[C@@H](CO)O2)c(=O)[nH]c1=O [deoxythymidine, 2'-deoxyribosylthymidine (thymidine), reference compound]
- reversal of antiviral activity of MMdCyd, order of potency [2]: deoxythymidine>deoxyuridine>deoxycytidine

SMILES: O=c1ccn([C@H]2C[C@H](O)[C@@H](CO)O2)c(=O)[nH]1 [deoxyuridine, 2'-deoxyuridine, reference compound]
- reversal of antiviral activity of MMdCyd, order of potency [2]: deoxythymidine>deoxyuridine>deoxycytidine
